Results: PubChem BioAssay AID1963960 (Molecular Pharmacology Branch, DTP, NCI, 2024)

System: MDA-MB-468 spheroids with HUVEC/MSC, viability
Assay: Anticancer human tumor MDA-MB-468 cell line growth inhibition [PI3K];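 also: spheroids exposed to agents for seven days before readout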;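 as to viability, T/C: 100% = DMSO vehicle control viability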
Conditions: for IC50: curve of first compound; for viability, T/C: stronger effect = lower value
Source text: Combinatorial screen of targeted agents with the PI3K inhibitors inavolisib, alpelisib, duvelisib, and copanlisib in multi-cell type tumor spheroids
A high-throughput screen of multi-cell type tumor spheroids was designed to identify active combinations of targeted small molecules and PI3K pathway inhibitors. Complex spheroids include a stromal component modeled by human endothelial cells (HUVEC) and fibroblasts modeled by human mesenchymal stem cells (MSCs). The concentration ranges selected for each drug and investigational agent were based upon clinically achievable concentrations if the clinical Cmax of the agent was known.
Compounds. The drugs and investigational agents: inavolisib (NSC800729), alpelisib (NSC765974), duvelisib (NSC772469), copanlisib (NSC816437), ipatasertib (NSC767898), afuresertib (NSC778305), talazoparib (NSC767125), sapanisertib (NSC764658), selumetinib (NSC741078), tovorafenib (DAY101, NSC766906), vemurafenib (NSC761431), ravoxertinib (NSC781343), sotorasib (NSC818433), MRTX1133 (NSC 836407), abemaciclib (NSC 768073), palbociclib (NSC758247), venetoclax (NSC 766270), SY5609 (NSC837396), enzalutamide (NSC755605), and darolutamide (NSC825331), were obtained from the National Cancer Institute (NCI) Developmental Therapeutics Program Chemical Repository. The FDA-approved anticancer drug set is available from the NCI Developmental Therapeutics Program. […] The stock solutions were prepared in dimethyl sulfoxide (DMSO, Sigma-Aldrich, St. Louis, MO, cat. D2650) at 800-fold the tested concentration and stored at -70 degrees C prior to their use. All drugs and investigational agents were tested over a range starting from a high concentration at or near the clinical Cmax and decreasing in half-log increments. If the clinical Cmax for an agent had not been determined, the highest concentration tested was 10 microM.
Cell Culture. All cells were maintained in an incubator at 37 degrees C and 5% CO2 with 95% humidity. The PDC lines were cultured according to standard operating procedures established by the NCI PDMR (https://pdmr.cancer.gov/sops/default.htm). All PDCs were thawed and cultured in Matrigel-coated flasks prepared with a working solution of 1X Ham's F-12 nutrient mix, without supplementation (Invitrogen, Waltham, MA, cat. 11765054), 100 U/mL penicillin-streptomycin (Invitrogen, cat. 15140122), and 2.5% Matrigel (Corning Inc., Corning, NY, cat. 354248) for the first three passages. The 354836-022-R-J1-PDC, 475296-252-R-J1-PDC, and 997726-040-R-J2-PDC lines were cultured in 6A media, which includes advanced DMEM/F-12 (Thermo Fisher Scientific, cat. 12634028), 10 mM HEPES (Thermo Fisher Scientific, cat. 15630080), 1X GlutaMAX supplement (Thermo Fisher Scientific, cat. 35050061), 0.1 mg/mL primocin (InvivoGen, San Diego, CA, cat. ant-pm-2), 10% defined fetal bovine serum, heat inactivated (HyClone Laboratories Inc., Logan, UT, cat. SH30070.03HI), 50% L-WRN conditioned media (ATCC, cat. CRL-3276), 1.25 mM N-Acetyl-L-cysteine (Sigma-Aldrich, cat. A9165), 10 mM nicotinamide (Sigma-Aldrich, cat. N0636), 1X B-27 supplement (Thermo Fisher Scientific, cat. 17504044), 1X N-2 supplement (Thermo Fisher Scientific, cat. 17502048), and 10 microM Y-27632 dihydrochloride (Tocris Bioscience, Bristol, United Kingdom, cat. 1254). The 624824-186-R-J2-PDC line was cultured in 6C/Colon 1B media, which includes all 6A media components plus 50 ng/mL human EGF recombinant protein (Thermo Fisher Scientific, cat. PHG0311). […]

[1] = second compound 0.00316 µM, first compound 0.0316 µM
[2] = second compound 0.00316 µM, first compound 0.1 µM
[3] = second compound 0.00316 µM, first compound 0.316 µM
[4] = second compound 0.00316 µM, first compound 1 µM
[5] = second compound 0.00316 µM, first compound 3.16 µM
[6] = second compound 0.00316 µM, first compound 10 µM
[7] = second compound 0.01 µM, first compound 0.0316 µM
[8] = second compound 0.01 µM, first compound 0.1 µM
[9] = second compound 0.01 µM, first compound 0.316 µM
[10] = second compound 0.01 µM, first compound 1 µM
[11] = second compound 0.01 µM, first compound 3.16 µM
[12] = second compound 0.01 µM, first compound 10 µM
[13] = second compound 0.0316 µM, first compound 0.0316 µM
[14] = second compound 0.0316 µM, first compound 0.1 µM
[15] = second compound 0.0316 µM, first compound 0.316 µM
[16] = second compound 0.0316 µM, first compound 1 µM
[17] = second compound 0.0316 µM, first compound 3.16 µM
[18] = second compound 0.0316 µM, first compound 10 µM
[19] = second compound 0.1 µM, first compound 0.0316 µM
[20] = second compound 0.1 µM, first compound 0.1 µM
[21] = second compound 0.1 µM, first compound 0.316 µM
[22] = second compound 0.1 µM, first compound 1 µM
[23] = second compound 0.1 µM, first compound 3.16 µM
[24] = second compound 0.1 µM, first compound 10 µM
[25] = second compound 0.316 µM, first compound 0.0316 µM
[26] = second compound 0.316 µM, first compound 0.1 µM
[27] = second compound 0.316 µM, first compound 0.316 µM
[28] = second compound 0.316 µM, first compound 1 µM
[29] = second compound 0.316 µM, first compound 3.16 µM
[30] = second compound 0.316 µM, first compound 10 µM
[31] = second compound 1 µM, first compound 0.0316 µM
[32] = second compound 1 µM, first compound 0.1 µM
[33] = second compound 1 µM, first compound 0.316 µM
[34] = second compound 1 µM, first compound 1 µM
[35] = second compound 1 µM, first compound 3.16 µM
[36] = second compound 1 µM, first compound 10 µM

Compound CC1(C)CCC(CN2CCN(c3ccc(C(=O)NS(=O)(=O)c4ccc(NCC5CCOCC5)c([N+](=O)[O-])c4)c(Oc4cnc5[nH]ccc5c4)c3)CC2)=C(c2ccc(Cl)cc2)C1 + COc1c(OCCCN2CCOCC2)ccc2c3n(c(=NC(=O)c4cnc(N)nc4)nc12)CCN3 has an IC50 (second compound 0.00316 µM) of over 10000 nM, an IC50 (second compound 0.01 µM) of over 10000 nM and an IC50 (second compound 0.0316 µM) of over 10000 nM. The IC50 (second compound 0.1 µM) was over 10000 nM, the IC50 (second compound 0.316 µM) was under 31.6 nM and the IC50 (second compound 1 µM) was under 31.6 nM. It also gave a viability, T/C [1] of 80.4%, a viability, T/C [2] of 87% and a viability, T/C [3] of 82.9%. For the same compound, the viability, T/C [4] was 99.9%, the viability, T/C [5] was 80.3% and the viability, T/C [6] was 78.3%. It also gave a viability, T/C [7] of 79.2%, a viability, T/C [8] of 79.7% and a viability, T/C [9] of 92%. It also gave a viability, T/C [10] of 87.9%, a viability, T/C [11] of 76.2% and a viability, T/C [12] of 90.2%. It also gave a viability, T/C [13] of 77.5%, a viability, T/C [14] of 71.2% and a viability, T/C [15] of 80%. It also gave a viability, T/C [16] of 83.1%, a viability, T/C [17] of 73% and a viability, T/C [18] of 69.6%. The viability, T/C [19] was 55.7%, the viability, T/C [20] was 54.8% and the viability, T/C [21] was 69.7%. The viability, T/C [22] was 63.4%, the viability, T/C [23] was 52.5% and the viability, T/C [24] was 67.6%. The viability, T/C [25] was 26.4%, the viability, T/C [26] was 23.5% and the viability, T/C [27] was 25.5%. The viability, T/C [28] was 28.9%, the viability, T/C [29] was 25.5% and the viability, T/C [30] was 22.8%. The viability, T/C [31] was 4.5%, the viability, T/C [32] was 3.78% and the viability, T/C [33] was 4.07%. The viability, T/C [34] was 3.93%, the viability, T/C [35] was 4.32% and the viability, T/C [36] was 4.03%.

CC(Cn1ccc(-c2ccc(C#N)c(Cl)c2)n1)NC(=O)c1cc(C(C)O)[nH]n1 (stereo unspecified) + COc1c(OCCCN2CCOCC2)ccc2c3n(c(=NC(=O)c4cnc(N)nc4)nc12)CCN3 gave an IC50 (second compound 0.00316 µM) of over 10000 nM, an IC50 (second compound 0.01 µM) of over 10000 nM and an IC50 (second compound 0.0316 µM) of over 10000 nM. The IC50 (second compound 0.1 µM) was over 10000 nM, the IC50 (second compound 0.316 µM) was under 31.6 nM and the IC50 (second compound 1 µM) was under 31.6 nM. It also gave a viability, T/C [1] of 88.8%, a viability, T/C [2] of 90.3% and a viability, T/C [3] of 94.3%. The viability, T/C [4] was 92.3%, the viability, T/C [5] was 90.5% and the viability, T/C [6] was 75.3%. For the same compound, the viability, T/C [7] was 92.2%, the viability, T/C [8] was 91.3% and the viability, T/C [9] was 83.4%. The viability, T/C [10] was 95.3%, the viability, T/C [11] was 85.3% and the viability, T/C [12] was 63.7%. For the same compound, the viability, T/C [13] was 83.6%, the viability, T/C [14] was 75.7% and the viability, T/C [15] was 87.1%. For the same compound, the viability, T/C [16] was 80.5%, the viability, T/C [17] was 80.9% and the viability, T/C [18] was 62.8%. It also gave a viability, T/C [19] of 55.8%, a viability, T/C [20] of 57% and a viability, T/C [21] of 60.9%. The viability, T/C [22] was 59.3%, the viability, T/C [23] was 56% and the viability, T/C [24] was 62.3%. It also gave a viability, T/C [25] of 26.9%, a viability, T/C [26] of 24.4% and a viability, T/C [27] of 27.3%. For the same compound, the viability, T/C [28] was 26.1%, the viability, T/C [29] was 26.7% and the viability, T/C [30] was 27.2%. It also gave a viability, T/C [31] of 2.86%, a viability, T/C [32] of 2.48% and a viability, T/C [33] of 2.64%. For the same compound, the viability, T/C [34] was 3.21%, the viability, T/C [35] was 3.72% and the viability, T/C [36] was 2.3%.

For Cn1ncnc1[C@H]1c2n[nH]c(=O)c3cc(F)cc(c23)N[C@@H]1c1ccc(F)cc1 + CC(Nc1ncnc2nc[nH]c12)c1cc2cccc(Cl)c2c(=O)n1-c1ccccc1, the IC50 (second compound 0.0316 µM) was over 100 nM, the IC50 (second compound 0.1 µM) was over 100 nM and the IC50 (second compound 0.316 µM) was 96.2 nM. The IC50 (second compound 1 µM) was 72.5 nM, the IC50 (second compound 3.16 µM) was 37 nM and the IC50 (second compound 10 µM) was under 0.316 nM. For the same compound, the viability, T/C (second compound 0.0316 µM, first compound 0.000316 µM) was 84.5%, the viability, T/C (second compound 0.0316 µM, first compound 0.001 µM) was 90.7% and the viability, T/C (second compound 0.0316 µM, first compound 0.00316 µM) was 86.9%. It also gave a viability, T/C (second compound 0.0316 µM, first compound 0.01 µM) of 78.1%, a viability, T/C [13] of 68.1% and a viability, T/C [14] of 51.2%. It also gave a viability, T/C (second compound 0.1 µM, first compound 0.000316 µM) of 78.3%, a viability, T/C (second compound 0.1 µM, first compound 0.001 µM) of 95.1% and a viability, T/C (second compound 0.1 µM, first compound 0.00316 µM) of 85%. It also gave a viability, T/C (second compound 0.1 µM, first compound 0.01 µM) of 66%, a viability, T/C [19] of 65.3% and a viability, T/C [20] of 51.7%. For the same compound, the viability, T/C (second compound 0.316 µM, first compound 0.000316 µM) was 73.2%, the viability, T/C (second compound 0.316 µM, first compound 0.001 µM) was 74.5% and the viability, T/C (second compound 0.316 µM, first compound 0.00316 µM) was 73%. It also gave a viability, T/C (second compound 0.316 µM, first compound 0.01 µM) of 69.9%, a viability, T/C [25] of 64% and a viability, T/C [26] of 49.5%. It also gave a viability, T/C (second compound 1 µM, first compound 0.000316 µM) of 59.3%, a viability, T/C (second compound 1 µM, first compound 0.001 µM) of 74% and a viability, T/C (second compound 1 µM, first compound 0.00316 µM) of 60.1%. The viability, T/C (second compound 1 µM, first compound 0.01 µM) was 64.5%, the viability, T/C [31] was 57.8% and the viability, T/C [32] was 46.8%. It also gave a viability, T/C (second compound 3.16 µM, first compound 0.000316 µM) of 55.5%, a viability, T/C (second compound 3.16 µM, first compound 0.001 µM) of 52.1% and a viability, T/C (second compound 3.16 µM, first compound 0.00316 µM) of 53.4%. For the same compound, the viability, T/C (second compound 3.16 µM, first compound 0.01 µM) was 52.8%, the viability, T/C (second compound 3.16 µM, first compound 0.0316 µM) was 51.9% and the viability, T/C (second compound 3.16 µM, first compound 0.1 µM) was 38.7%. The viability, T/C (second compound 10 µM, first compound 0.000316 µM) was 39.4%, the viability, T/C (second compound 10 µM, first compound 0.001 µM) was 37.8% and the viability, T/C (second compound 10 µM, first compound 0.00316 µM) was 40.6%. The viability, T/C (second compound 10 µM, first compound 0.01 µM) was 36.9%, the viability, T/C (second compound 10 µM, first compound 0.0316 µM) was 35.2% and the viability, T/C (second compound 10 µM, first compound 0.1 µM) was 26.9%.
